Conditions: Liquid, Vibrating tube method

CCCCCCCC [octane]
mass density [kg/m3]
Conditions	288.15 K	293.15 K	298.15 K	303.15 K	308.15 K	313.15 K	318.15 K	323.15 K
100 kPa	706.5	702.5	698.5	694.4	690.4	686.3	682.2	678
101 kPa	–	702.58	–	694.48	–	686.32	–	678.09
1000 kPa	707.2	703.2	699.2	695.2	691.2	687.1	683	678.9
5000 kPa	710.3	706.4	702.5	698.6	694.7	690.8	686.8	682.8
10000 kPa	714.1	710.3	706.5	702.7	698.9	695.1	691.3	687.4
15000 kPa	717.7	714	710.3	706.7	703	699.3	695.6	691.9
20000 kPa	721.2	717.6	714	710.5	706.9	703.3	699.7	696.1
25000 kPa	724.5	721	717.6	714.1	710.6	707.2	703.6	700.2
30000 kPa	727.7	724.3	720.9	717.5	714.2	710.8	707.4	704
35000 kPa	730.8	727.5	724.1	720.9	717.5	714.3	711	707.7
40000 kPa	733.7	730.5	727.2	724	720.8	717.6	714.3	711.1
45000 kPa	736.5	733.3	730.1	727	723.8	720.7	717.5	714.4
50000 kPa	739.2	736	732.9	729.8	726.7	723.6	720.5	–
55000 kPa	741.7	738.6	735.5	732.5	729.4	726.3	723.3	–
60000 kPa	744.1	741	738	735	731.9	728.9	725.9	–
